{"source": "patent US10842796B2", "about": "“Treatment of dementia” (WisTa Laboratories Ltd., priority 2016, dated 2020)", "key": {"TDP-43 aggregates": {"system": "TDP-43 aggregates", "conditions": "0.05 μM MT; SH-SYSY cells; cited from earlier work"}, "[1]": {"system": "behavioural variant frontotemporal dementia (bvFTD)", "conditions": "for ACE-R treatment effect mean (se) / FAQ treatment effect mean (se) / Fronto-temporal volume treatment effect mean (se): wrt 4 mg b.i.d. alone"}, "[2]": {"test": "compatibility of LMTM tablets with AD treatments (HPLC recovery of LMT and MT)", "format": "physicochemical", "experimental": "The effect of combining tablets of galantamine, memantine, donepezil or rivastigmine independently with LMTM was studied and LMTM was analysed in the resultant mixture.\nOne LMTM tablet (100 mg) was added to a degassed 200 ml amber volumetric flask along with one prescription dose of each of the test drugs, as indicated in the table below, and 100 ml of diluent (degassed 0.1% formic acid). Flasks were given an argon headspace and shaken on a wrist action shaker for 40 minutes at 250 oscillations/min. Samples were then diluted to the graduation mark with diluent, given an argon headspace and inverted to mix. Subsamples of the resulting solution were centrifuged at 13,000 rpm for 5 minutes to remove any undissolved excipients and the supernatant placed in an amber HPLC vial and injected into a high performance liquid chromatography (HPLC) system (Agilent 1260) to separate LMT and MT. LMT and MT peaks were identified by absorbance at 255 nm with retention times of 5.5 and 14 minutes, respectively (FIG. 11)."}, "[3]": {"test": "14-day and 25-day repeat-dose studies in healthy volunteers (discoloration)", "format": "in vivo, human", "conditions": "4 mg BID lowest dose with comparable discoloration"}, "[4]": {"conditions": "4 mg b.i.d. versus 100 mg b.i.d."}, "[5]": {"conditions": "ANCOVA model, 4 mg b.i.d. as add-on to AChEI/Mem"}, "[6]": {"conditions": "ANCOVA model, 100 mg b.i.d. alone"}, "[7]": {"conditions": "ANCOVA model, 100 mg b.i.d. as add-on to AChEI/Mem"}, "[8]": {"conditions": "MMRM model, 4 mg b.i.d. as add-on to AChEI/Mem"}, "[9]": {"conditions": "MMRM model, 100 mg b.i.d. alone"}, "[10]": {"conditions": "MMRM model, 100 mg b.i.d. as add-on to AChEI/Mem"}, "[11]": {"conditions": "100 mg LMTM + 6 mg rivastigmine"}, "[12]": {"conditions": "100 mg LMTM + 12 mg galantamine"}, "[13]": {"conditions": "100 mg LMTM tablet, no addition, HPLC 255 nm"}}, "note": "Read-outs that look alike come from different tables or passages of the source.", "data": [{"compound": "Methylthioninium [MT]", "values": [{"measurement": "reduction of number of intracellular TDP-43 aggregates", "setting": "TDP-43 aggregates", "value": 50, "unit": "%"}]}, {"compound": "CN(C)c1ccc2c(c1)Sc1cc(N(C)C)ccc1N2", "note": "[LMTM, leuco-methylthioninium bis(hydromethanesulfonate)]", "values": [{"measurement": "decline on ACE-R and MMSE compared with historical controls", "setting": "[1]; 4 mg b.i.d. and 100 mg b.i.d.", "value": "significantly less than historical controls"}, {"measurement": "ADCS-CGIC, FRS, MMSE, UPDRS (safety outcome)", "setting": "[1]; [4]", "value": "no difference"}, {"measurement": "primary analysis models for ACE-R, FAQ and Whole Brain Volume", "setting": "[1]; [4]", "value": "no difference"}, {"measurement": "12 m change in MMSE (decline), present study", "setting": "[1]; 4 mg bd", "value": "3.4 ± 0.5"}, {"measurement": "12 month change in ACE-R (decline), present study", "setting": "[1]; 4 mg bd", "value": "10.4 ± 1.4"}, {"measurement": "12 m change in MMSE (decline), present study", "setting": "[1]; 100 mg bd", "value": "3.0 ± 0.7"}, {"measurement": "12 month change in ACE-R (decline), present study", "setting": "[1]; 100 mg bd", "value": "10.7 ± 1.4"}, {"measurement": "ACE-R treatment effect mean (se)", "setting": "[1]; [5]", "value": "6.52 (2.42)"}, {"measurement": "FAQ treatment effect mean (se)", "setting": "[1]; [5]", "value": "2.15 ± 1.21"}, {"measurement": "Fronto-temporal volume treatment effect mean (se)", "setting": "[1]; [5]", "value": "356 (237)"}, {"measurement": "ACE-R treatment effect mean (se)", "setting": "[1]; [6]", "value": "1.35 (1.71)"}, {"measurement": "FAQ treatment effect mean (se)", "setting": "[1]; [6]", "value": "−0.11 ± 0.87"}, {"measurement": "Fronto-temporal volume treatment effect mean (se)", "setting": "[1]; [6]", "value": "−98 (173)"}, {"measurement": "ACE-R treatment effect mean (se)", "setting": "[1]; [7]", "value": "9.69 (2.73)"}, {"measurement": "FAQ treatment effect mean (se)", "setting": "[1]; [7]", "value": "1.90 ± 1.37"}, {"measurement": "Fronto-temporal volume treatment effect mean (se)", "setting": "[1]; [7]", "value": "481 (258)"}, {"measurement": "ACE-R treatment effect mean (se)", "setting": "[1]; [8]", "value": "7.17 ± 3.25"}, {"measurement": "FAQ treatment effect mean (se)", "setting": "[1]; [8]", "value": "2.08 ± 1.31"}, {"measurement": "Fronto-temporal volume treatment effect mean (se)", "setting": "[1]; [8]", "value": "240 (291)"}, {"measurement": "ACE-R treatment effect mean (se)", "setting": "[1]; [9]", "value": "−1.12 ± 2.28"}, {"measurement": "FAQ treatment effect mean (se)", "setting": "[1]; [9]", "value": "−0.03 ± 0.92"}, {"measurement": "Fronto-temporal volume treatment effect mean (se)", "setting": "[1]; [9]", "value": "−4 (207)"}, {"measurement": "ACE-R treatment effect mean (se)", "setting": "[1]; [10]", "value": "5.65 ± 3.57"}, {"measurement": "FAQ treatment effect mean (se)", "setting": "[1]; [10]", "value": "2.36 ± 1.45"}, {"measurement": "Fronto-temporal volume treatment effect mean (se)", "setting": "[1]; [10]", "value": "278 (313)"}, {"measurement": "safety profile", "setting": "[1]; data not shown", "value": "raised no major concerns"}, {"measurement": "FAQ, MMSE and fronto-temporal volume, LMTM in combination with AD treatments versus LMTM alone", "setting": "[1]; post hoc exploratory analyses", "value": "directionally supportive benefits"}, {"measurement": "ACE-R, LMTM in combination with off-label AD treatments (AChEI/Mem) versus LMTM alone", "setting": "[1]; post hoc exploratory analyses with AD-comedication status and severity as covariates", "value": "significant benefits"}, {"measurement": "LMT (% difference from control*)", "setting": "[2]; [11]", "value": 5.64, "unit": "%"}, {"measurement": "LMT (area)", "setting": "[2]; [11]", "value": 23302.4, "unit": "area"}, {"measurement": "MT (% difference from control*)", "setting": "[2]; [11]", "value": 2.14, "unit": "%"}, {"measurement": "MT (area)", "setting": "[2]; [11]", "value": 320.6, "unit": "area"}, {"measurement": "LMT (% difference from control*)", "setting": "[2]; 100 mg LMTM + 10 mg donepezil", "value": "−2.58", "unit": "%"}, {"measurement": "LMT (area)", "setting": "[2]; 100 mg LMTM + 10 mg donepezil", "value": 22058.4, "unit": "area"}, {"measurement": "MT (% difference from control*)", "setting": "[2]; 100 mg LMTM + 10 mg donepezil", "value": "−6.58", "unit": "%"}, {"measurement": "MT (area)", "setting": "[2]; 100 mg LMTM + 10 mg donepezil", "value": 313.9205, "unit": "area"}, {"measurement": "LMT (% difference from control*)", "setting": "[2]; 100 mg LMTM + 10 mg memantine", "value": 2.19, "unit": "%"}, {"measurement": "LMT (area)", "setting": "[2]; 100 mg LMTM + 10 mg memantine", "value": 22642.3, "unit": "area"}, {"measurement": "MT (% difference from control*)", "setting": "[2]; 100 mg LMTM + 10 mg memantine", "value": 1.10, "unit": "%"}, {"measurement": "MT (area)", "setting": "[2]; 100 mg LMTM + 10 mg memantine", "value": 336, "unit": "area"}, {"measurement": "LMT (% difference from control*)", "setting": "[2]; [12]", "value": "−1.37", "unit": "%"}, {"measurement": "LMT (area)", "setting": "[2]; [12]", "value": 22157.4, "unit": "area"}, {"measurement": "MT (% difference from control*)", "setting": "[2]; [12]", "value": "−14.90", "unit": "%"}, {"measurement": "MT (area)", "setting": "[2]; [12]", "value": 332.3, "unit": "area"}, {"measurement": "LMT (area)", "setting": "[2]; [13]", "value": 22465.7, "unit": "area"}, {"measurement": "MT (area)", "setting": "[2]; [13]", "value": 390.5473, "unit": "area"}, {"measurement": "amount of oxidised MT after mixing", "setting": "[2]; after mixing with any of the AChEIs or memantine", "value": "not increased"}, {"measurement": "LMTM found in the oxidised form", "setting": "[2]; following HPLC analysis", "value": "Less than 2%"}, {"measurement": "urine and stool discoloration", "setting": "[3]", "value": "associated with urine and stool discoloration"}]}]}
